Measured values published in ChEMBL document CHEMBL3301546, “MMV Malaria Box yeast growth screening”.

How the values were obtained:
Assay type in all cases: functional
Saccharomyces cerevisiae [1] = assay: MMV: Growth assays were conducted using the prototrophic S. cerevisiae strain JHY222. Each MMV compound (0.1 mM) was tested in minimal media containing ethanol and glycerol as carbon sources (Yeast Nitrogen Base, Ethanol, Glycerol; YNBEG). The growth rate in the presence of each MMV compound was calculated as follows: (i) the first 10 OD readings were averaged and subtracted from all OD readings of the corresponding curve to set the baseline of the growth curve to zero, and (ii) the area under the curve (AUC) was then calculated as the sum of all OD readings. […] A relative growth value was calculated as follows: AUC(DRUG) - AUC(DMSO)/AUC(DMSO); where AUC(DMSO) represents growth measured in a DMSO control well that was on the same microtiter plate of the drug-treated culture.
Saccharomyces cerevisiae [2] = assay: (§1) MMV: Growth assays were conducted using the prototrophic S. cerevisiae strain JHY222. Each MMV compound (0.1 mM) was tested in minimal media containing dextrose as a carbon source (Yeast Nitrogen Base, Dextrose; YNBD). The growth rate in the presence of each MMV compound was calculated as follows: (i) the first 10 OD readings were averaged and subtracted from all OD readings of the corresponding curve to set the baseline of the growth curve to zero, and (ii) the area under the curve (AUC) was then calculated as the sum of all OD readings. […] A relative growth value was calculated as follows: AUC(DRUG) - AUC(DMSO)/AUC(DMSO); where AUC(DMSO) represents growth measured in a DMSO control well that was on the same microtiter plate of the drug-treated culture.
Saccharomyces cerevisiae [3] = assay: as §1, with “rich” for “minimal”, “Extract, Peptone,” for “Nitrogen Base,”, “YPD).” for “YNBD).”

Compound	Relative Growth (Saccharomyces cerevisiae [1])	Relative Growth (Saccharomyces cerevisiae [2])	Relative Growth (Saccharomyces cerevisiae [3])
CC(C)=CCN1CCC(C(=O)Nc2ccc(-c3nc4ccccc4[nH]3)cc2)CC1	0.1138	0.0091	-0.0484
CC(C)(C)c1ccc(C(=O)Nc2nc3ccccc3s2)cc1	-0.4045	-0.0029	-0.132
CNCCCNc1ccnc2cc(Cl)ccc12	0.188	0.075	0.1016
COc1cccc(C(=O)Nc2ccc(-c3nc4ccccc4[nH]3)cc2)c1	0.0109	0.0184	-0.0256
CCN(CC)c1ccc(NC(=O)c2cccs2)cc1	-0.4168	-0.1938	-0.0445
CCOc1cc2c(cc1OCC)C(c1cc(Cl)c(O)c(OCC)c1)NCC2 (configuration not stated)	-0.0121	0.0679	0.0051
CC(C)(C)CC(C)(C)NCC(O)COc1ccc(Cl)cc1Cl (configuration not stated)	-0.1363	0.0104	-0.1373
Cc1cc(NC(=O)c2cccc(C(F)(F)F)c2)n(-c2nc(-c3ccc4c(c3)OCO4)cs2)n1	-0.0763	-0.0865	-0.007
COc1ccc(NC(=O)C2c3ccccc3C(=O)N(CC(C)C)C2c2cccs2)cc1Cl (configuration not stated)	-0.0036	0.0154	-0.1808
O=C(Nc1ccccc1O)c1ccc(Oc2cccc(C(=O)Nc3ccccc3O)c2)cc1	-0.0198	0.0291	-0.023
Oc1ccc2ccccc2c1CNc1nc2ccccc2[nH]1	-0.0356	-0.1179	-0.0053
CCN(CC)CCNc1ccnc2cc3ccccc3cc12.O=P(O)(O)O	-0.0873	-0.1052	0.0094
CCCCCC(=O)N1c2ccccc2N=C2CC(c3ccc(OC)c(OC)c3)CC(O)=C2C1c1ccc(C(F)(F)F)cc1 (configuration not stated)	0.0121	0.1507	-0.0291
CCOc1c(Cl)cc(CNCC(O)c2ccccc2)cc1OC (configuration not stated)	-0.2647	0.0136	-0.0592
O=C1c2ccccc2-c2nnc(-c3ccc(Br)cc3)cc21	0.1282	0.0312	-0.0452
COc1cccc(NC(=O)[C@H](C(C)C)n2c(=O)[nH]c3ccccc3c2=O)c1	0.0015	-0.0427	0.0157
COc1ccccc1CNC(=O)CCn1c(=O)[nH]c2ccsc2c1=O	-0.0445	0.2472	-0.0638
CCOc1ccc(N2C(N)=NC(N)=NC2(C)C)cc1.Cl	0.0602	-0.1178	-0.0058
CCOc1ccc2c(c1)CN(Cc1ccc(Cl)cc1)CO2	-0.0581	-0.0363	-0.0457
COc1ccc(C(=O)NC(c2ccccc2Cl)c2cc(Cl)c3cccnc3c2O)cc1 (configuration not stated)	-1.0144	-1.0012	-0.3676
Cc1c(C)n(CC(O)CNC2CCCCC2C)c2ccccc12 (configuration not stated)	-0.2246	-0.0308	-0.0794
CCOc1ccc(Nc2c3ccccc3nc3ccccc23)cc1.Cl	0.0301	0.0198	-0.0047

Compound	Relative Growth (Saccharomyces cerevisiae [1])	Relative Growth (Saccharomyces cerevisiae [2])	Relative Growth (Saccharomyces cerevisiae [3])
COc1cc(OC)cc(N2C(=O)N(Cc3ccc(C(C)(C)C)cc3)c3ccccc3S2(=O)=O)c1	-0.0128	0.0008	-0.7249
CCOc1cccc2sc(N(Cc3cccnc3)C(=O)C3CCCCC3)nc12	-0.3394	-0.0544	-0.0327
Cc1cc(C)cc(Nc2cc(C)nc3nc(C(F)(F)F)nn23)c1	-0.0322	0.0866	-0.0343
CCCC(c1nnnn1C1CCCCC1)N1CCN(C(=O)c2ccco2)CC1.Cl (configuration not stated)	0.0167	0.0714	-0.0604
CC(C)CNC(=O)c1c(N)n(CCc2ccccc2F)c2nc3ccccc3nc12	-0.2111	0.1192	0.0072
Cc1ccc(Nc2nc(-c3ccccn3)cs2)cc1	0.1504	0.0898	0.0194
COc1ccc(C)c2sc(N(Cc3cccnc3)C(=O)c3ccc(C#N)cc3)nc12	0.0255	-0.0341	-0.0087
COc1ccc2nc(C)cc(Nc3cccc(O)c3)c2c1.Cl	0.0008	0.0539	-0.0539
CCCCC(O)(c1ccc(Cl)cc1)C(CN1CCOCC1)c1ccc(Cl)cc1.Cl (configuration not stated)	-0.0844	-0.1088	0.0402
COc1ccc(C2Sc3ccccc3N=C3C2=C(O)c2ccccc23)cc1 (configuration not stated)	0.0327	-0.0473	0.0982
Cc1ccc(-c2cc3c(nn2)-c2ccccc2C3=O)cc1	-0.6667	-0.1641	-0.0004
COc1ccc(-c2cc3c(nn2)-c2ccccc2C3=O)cc1	-0.8829	-0.3119	0.0333
C=CC12CCN(CC1)C(C(O)c1ccnc3ccc(OC)cc13)C2.Cl (configuration not stated)	0.1178	0.1593	-0.0044
COc1cccc(NC(=O)Cn2c(C)c(C#N)c3ccccc32)c1	-1.0064	-1.0078	-0.9399
COc1ccc2nc(C)cc(Nc3ccccc3O)c2c1	-0.0329	0.0332	-0.0232
Cc1cccc(Nc2nc(N)c3ccccc3n2)c1.Cl	0.3952	0.1313	-0.0941
CCCc1cc(O)c2c3c(c(=O)oc2c1)CN(C)CC3	-0.0215	-0.0292	-0.0062
COc1cc(CNCCc2ccc(Cl)cc2)cc(OC)c1O	-0.0938	0.0037	0.0063
COc1cc2c(cc1OC)C1=NNC(=O)C1=NC(C)(C)C2	-0.3659	-0.0857	-0.48
CCCCCCn1c(=N)n(CC(O)COc2cccc(C)c2)c2ccccc21.Cl (configuration not stated)	-0.0105	-0.1558	-0.051
O=c1c2c([nH]c3ccccc13)CCCC2	-0.326	-0.018	-0.0433
O=C(Nc1nc(-c2ccccn2)cs1)c1ccccc1Br	0.1503	-0.0666	0.0205
